Laboratory results taken from patent US12059408B2, “Treatment of cognitive impairment associated with schizophrenia” (Boehringer Ingelheim International GmbH, priority 2020, dated 2024).

Assays:
[1] = test system: patients with schizophrenia; test: Phase II CIAS trial: cognition by MCCB, compound I add-on to antipsychotics vs placebo; assay type: in vivo, human; set-up: Change from baseline in MCCB overall composite score at Week 12, adjusted mean / Change from baseline in MCCB overall composite score at Week 12, comparison vs. placebo, adjusted mean: scale not given here; conditions: for Change from baseline in MCCB overall composite score at Week 12, adjusted mean: 12 weeks; for Change from baseline in MCCB overall composite score at Week 12, adjusted mean / Change from baseline in MCCB overall composite score at Week 12, comparison vs. placebo, adjusted mean: MMRM; for Change from baseline in MCCB overall composite score at Week 12, adjusted mean / Change from baseline in MCCB overall composite score at Week 12, comparison vs. placebo, adjusted mean / Proportion of responders, change from baseline in MCCB overall composite score at Week 12 / Responders, comparison vs. placebo, odds ratio: FAS; for Responders, comparison vs. placebo, odds ratio: logistic regression
Description: This trial was designed to investigate whether compound I as an add-on therapy to antipsychotics (except clozapine) can improve cognitive symptoms in patients with schizophrenia.
The primary endpoint was cognition assessed using the Measurement and Treatment Research to Improve Cognition in Schizophrenia (MATRICS) consensus cognitive battery (MCCB).
• 1) Men or women who are 18-50 years (inclusive) of age at time of consent with established schizophrenia (as per DSM-5) with the following clinical features: • Outpatient, with no hospitalization for worsening of schizophrenia within 3 months (hospitalization for social management and/or day hospital programs within this time are acceptable) prior to randomization • Medically stable over the prior 4 weeks and psychiatrically stable without symptom exacerbation within 3 months prior to randomization • patients who have no more than a “moderate severe” rating on the Positive and Negative Symptom Scale (PANSS) positive items P1, P3-P7 (item score≤5) and no more than a “moderate” rating on the PANSS positive item P2 (item score≤4) • 2) Current antipsychotic and concomitant psychotropic medications as assessed at Visit 1 must meet the criteria below: • a. patients may have up to 2 antipsychotics (typical and/or atypical) • b. patients must be maintained on current typical and/or atypical antipsychotics other than Clozapine and on current dose for at least 4 weeks prior to randomization and/or maintained on current long acting injectable antipsychotics and current dose for at least 3 months prior to randomization • c. patients must be maintained on current concomitant psychotropic medications, anticholinergics, antiepileptics and/or lithium for at least 3 months prior to randomization and on current dose for at least 4 weeks prior to randomization.
Patients eligible for the trial were randomly assigned, in a 1:1:1:1:2 ratio to either • 2 mg compound I • 5 mg compound I • 10 mg compound I • 25 mg compound I • Placebo
An MCPMod approach combined with MMRM was used to establish the proof of concept in this trial.
The null hypothesis was that there was a flat dose-response pattern across placebo and any dose of compound I within the tested dose range on the mean change in the MCCB overall composite score from baseline to Week 12. The alternative hypothesis was that there was a non-flat dose-response pattern indicating a benefit of compound I versus placebo.
(§1) Patients in the FAS were analysed according to the ITT principle, i.e. according to their randomised trial medication. The FAS was used for analyses of efficacy.
The primary endpoint of this trial was the change from baseline in cognitive function as measured by the MCCB overall composite score after 12 weeks of treatment. The primary efficacy analysis was based on the full analysis set (FAS).
Model includes fixed, categorical factors of planned treatment, analysis visit, and planned treatment by analysis visit interaction, as well as the continuous fixed covariate of baseline value and baseline value by analysis visit interaction. Subject is treated as random effect. Unstructured covariance structure was used to fit the mixed model. Kenward-Roger was used to model degrees of freedom.

[2] = test system: patients with mild to moderate dementia due to AD; test: AD trial: cognition by ADAS-Cog11, compound I vs placebo; assay type: in vivo, human; conditions: for Change from baseline in ADAS-Cog11 total score at Week 12, adjusted mean / Change from baseline in ADAS-Cog11 total score at Week 12, comparison vs. placebo, adjusted mean: MMRM, FAS (OC)
Description: This trial was designed to investigate whether compound I either alone as monotherapy or as an add-on therapy to acetylcholinesterase inhibitors can improve cognitive symptoms in patients with AD.
The primary endpoint was change from baseline in ADAS-Cog11 (Alzheimer's Disease Assessment Scale-cognitive subscale) total score after 12-week treatment. (Lower values in the ADAS-Cog11 score indicate better cognitive function.)
• 1) Diagnosis of mild-to-moderate Alzheimer's Disease Dementia according to the recommendations from the National Institute on Aging-Alzheimer's Association workgroups on diagnostic guidelines for Alzheimer's disease. • 2) Male or female patients at least 55 years of age. Patients older than 85 years could be included based on an acceptable general health status, (e.g. concomitant diseases, physical capability to follow the required study procedures (visits etc.)) at discretion of the investigator • 3) MMSE score of 15-26 at screening (Visit 1). • 4) Concomitant use of AChEIs allowed but not required. Key Exclusion Criteria • 1) Dementia secondary to disorders other than Alzheimer's Disease Dementia. • 2) Any central nervous system disease other than AD which according to the investigator may be associated with worsening of cognition. • 3) Any suicidal behaviour in the past 2 years (i.e. actual attempt, interrupted attempt, aborted attempt, or preparatory acts or behaviour). • 4) Any suicidal ideation of type 4 or 5 in the C-SSRS in the past 3 months (i.e. active suicidal thought with intent but without specific plan, or active suicidal thought with plan and intent). • 5) Previous participation in investigational drug studies of dementia of Alzheimer's Type within three months prior to screening. Patients having received any active treatment in studies targeting disease modification of AD are excluded.
Patients eligible for the trial were randomly assigned, in a 1:1:1:1:1 ratio to either • 2 mg compound I • 5 mg compound I • 10 mg compound I • 25 mg compound I • Placebo
An MCPMod approach combined with MMRM was used to test for the proof of concept in this trial.
as §1
The primary endpoint was the change from baseline in ADAS-Cog11 total score after 12 weeks of treatment. The analyses for PoC and dose-finding were done using the MCPmod technique for MMRM.
Model includes fixed, categorical factors of planned treatment (p-value=0.3425), analysis visit (p-value=0.7890), baseline MMSE stratification factor (≥20, <20) (p-value≤0.0001), and planned treatment by analysis visit interaction (p-value=0.7534), as well as the continuous fixed covariate of baseline value (p-value≤0.0001) and baseline value by analysis visit interaction (p-value=0.1185).

[3] = test system: patients with mild to moderate dementia due to AD; test: AD trial: safety (AEs, laboratory tests); assay type: in vivo, human; conditions: 25 mg treatment group
Description: This was a 12-week, multi-centre, multi-national, randomised, double-blind, double-dummy, placebo-controlled, parallel-group trial in patients with mild to moderate dementia due to AD.
(§2) The TS included all patients who were randomised and were treated with ≥1 dose of trial medication. Patients in the TS were analysed according to the actual trial medication they received at randomisation. The TS was used for analyses of safety, demographics, and baseline characteristics.
Safety assessments included the frequency of AEs, recording of vital signs, ECG measurements, standard laboratory tests, physical examination, and C-SSRS questionnaires.

[4] = Animal cognition tasks with CSF glycine and CSF compound levels; assay type: in vivo; conditions: animals, efficacious doses
CSF glycine [5] = test: as above; assay type: in vivo; conditions: animals
CSF glycine [6] = test: Proof of clinical mechanism trial in healthy volunteers; assay type: in vivo, human; conditions: 10 mg dose
[7] = test system: patients with schizophrenia; test: Phase II CIAS trial: safety (AEs, laboratory tests, PANSS, C-SSRS)
Description: This was a 12-week, multi-centre, multi-national, randomised, double-blind, double-dummy, placebo-controlled, parallel-group trial in patients with clinically stable schizophrenia.
as §2
Safety was assessed based on the frequency of AEs, recording of vital signs, ECG measurements, standard laboratory tests, physical examination, neurological examination, as well as PANSS and C-SSRS questionnaires.

C[C@@H](Oc1ccc(S(C)(=O)=O)cc1C(=O)N1C[C@@H]2C[C@]2(c2cc(C(F)(F)F)on2)C1)C(F)(F)F [compound I, [5-(methylsulfonyl)-2-{[(2R)-1,1,1-trifluoropropan-2-yl]oxy}phenyl] {(1R,5R)-1-[5-(trifluoromethyl)-1,2-oxazol-3-yl]-3-azabicyclo[3.1.0]hex-3-yl}methanone]
Effect on cognition (dose considerations, Phase II trial) ([1]; 2 mg): ineffective | Change from baseline in MCCB overall composite score at Week 12, adjusted mean ([1]; 2 mg once daily oral): 1.784 | Change from baseline in MCCB overall composite score at Week 12, comparison vs. placebo, adjusted mean ([1]; 2 mg once daily): 0.280 | Effect on cognition (dose considerations, Phase II trial) ([1]; 5 mg): numerically improved cognition in Asian subpopulation | Change from baseline in MCCB overall composite score at Week 12, adjusted mean ([1]; 5 mg once daily oral): 1.641 | Change from baseline in MCCB overall composite score at Week 12, comparison vs. placebo, adjusted mean ([1]; 5 mg once daily): 0.137 | Effect on cognition (dose considerations, Phase II trial), primary endpoint ([1]; 10 mg): separated best from placebo | Change from baseline in MCCB neurocognitive composite score at Week 12 ([1]; 10 mg and 25 mg treatment groups compared with placebo): A larger change from baseline was observed | Change from baseline in MCCB overall composite score at Week 12, adjusted mean ([1]; 10 mg once daily oral): 3.486 | Change from baseline in MCCB overall composite score at Week 12, comparison vs. placebo, adjusted mean ([1]; 10 mg once daily): 1.982 | Effect on cognition (dose considerations, Phase II trial) ([1]; 25 mg): efficacy less consistent across analyses than the 10 mg dose | Change from baseline in MCCB overall composite score at Week 12, adjusted mean ([1]; 25 mg once daily oral): 3.234 | Change from baseline in MCCB overall composite score at Week 12, comparison vs. placebo, adjusted mean ([1]; 25 mg once daily): 1.730 | Cognitive performance compared to placebo, phase 2 clinical trial ([1]; certain doses, patients having schizophrenia): improves cognitive performance | Dose-response for change from baseline at Week 12 in MCCB overall composite T-score ([1]; doses of 2 to 25 mg): non-flat dose-response curve | Proportion of responders, change from baseline in MCCB overall composite score at Week 12 ([1]; responder ≥3, 2 mg): 46.3% | Responders, comparison vs. placebo, odds ratio ([1]; responder ≥3, 2 mg): 1.184 | Proportion of responders, change from baseline in MCCB overall composite score at Week 12 ([1]; responder ≥3, 5 mg): 42.3% | Responders, comparison vs. placebo, odds ratio ([1]; responder ≥3, 5 mg): 1.006 | Proportion of responders, change from baseline in MCCB overall composite score at Week 12 ([1]; responder ≥3, 10 mg): 61.5% | Responders, comparison vs. placebo, odds ratio ([1]; responder ≥3, 10 mg): 2.200 | Proportion of responders, change from baseline in MCCB overall composite score at Week 12 ([1]; responder ≥3, 25 mg): 47.4% | Responders, comparison vs. placebo, odds ratio ([1]; responder ≥3, 25 mg): 1.241 | Proportion of responders, change from baseline in MCCB overall composite score at Week 12 ([1]; responder ≥4, 2 mg): 40.3% | Responders, comparison vs. placebo, odds ratio ([1]; responder ≥4, 2 mg): 1.298 | Proportion of responders, change from baseline in MCCB overall composite score at Week 12 ([1]; responder ≥4, 5 mg): 38.0% | Responders, comparison vs. placebo, odds ratio ([1]; responder ≥4, 5 mg): 1.180 | Proportion of responders, change from baseline in MCCB overall composite score at Week 12 ([1]; responder ≥4, 10 mg): 52.6% | Responders, comparison vs. placebo, odds ratio ([1]; responder ≥4, 10 mg): 2.131 | Proportion of responders, change from baseline in MCCB overall composite score at Week 12 ([1]; responder ≥4, 25 mg): 41.0% | Responders, comparison vs. placebo, odds ratio ([1]; responder ≥4, 25 mg): 1.338 | Proportion of responders, change from baseline in MCCB overall composite score at Week 12 ([1]; responder ≥5, 2 mg): 35.8% | Responders, comparison vs. placebo, odds ratio ([1]; responder ≥5, 2 mg): 1.370 | Proportion of responders, change from baseline in MCCB overall composite score at Week 12 ([1]; responder ≥5, 5 mg): 32.4% | Responders, comparison vs. placebo, odds ratio ([1]; responder ≥5, 5 mg): 1.176 | Proportion of responders, change from baseline in MCCB overall composite score at Week 12 ([1]; responder ≥5, 10 mg): 44.9% | Responders, comparison vs. placebo, odds ratio ([1]; responder ≥5, 10 mg): 1.998 | Proportion of responders, change from baseline in MCCB overall composite score at Week 12 ([1]; responder ≥5, 25 mg): 39.7% | Responders, comparison vs. placebo, odds ratio ([1]; responder ≥5, 25 mg): 1.619 | Change from baseline in ADAS-Cog11 total score at Week 12, adjusted mean ([2]; 2 mg once daily oral): −0.02 | Change from baseline in ADAS-Cog11 total score at Week 12, comparison vs. placebo, adjusted mean ([2]; 2 mg): 0.05 | Change from baseline in ADAS-Cog11 total score at Week 12, adjusted mean ([2]; 5 mg once daily oral): 0.23 | Change from baseline in ADAS-Cog11 total score at Week 12, comparison vs. placebo, adjusted mean ([2]; 5 mg): 0.30 | Change from baseline in ADAS-Cog11 total score at Week 12, adjusted mean ([2]; 10 mg once daily oral): 0.69 | Change from baseline in ADAS-Cog11 total score at Week 12, comparison vs. placebo, adjusted mean ([2]; 10 mg): 0.76 | Change from baseline in ADAS-Cog11 total score at Week 12, adjusted mean ([2]; 25 mg once daily oral): −0.08 | Change from baseline in ADAS-Cog11 total score at Week 12, comparison vs. placebo, adjusted mean ([2]; 25 mg): −0.02 | Dose-response of change from baseline in ADAS-Cog11 total score at Week 12 (MCPmod, 6 models) ([2]; 2 to 25 mg): no dose response relation was observed | Secondary and further endpoints: ADCS-ADL, CIBIC+, cognitive composite, COWAT, VFT, Coding, Digit Span Backwards ([2]; change from baseline): no treatment differences indicative of a benefit were found | Improvement of cognition in patients suffering from Alzheimer's disease ([2]; same doses regimen as CIAS): ineffective | Decrease of haemoglobin levels, maximum effect [3]: 5.7% | CSF levels of compound I required for efficacy [4]: 1-2 × GlyT1 IC50 | Increase of CSF glycine at doses efficacious in animal cognition tasks (CSF glycine [5]): approximately 50% | CSF glycine increase and CSF level criteria (CSF glycine [6]): these criteria were met by the 10 mg dose | Haemoglobin, mean change from baseline at last on-treatment value ([7]; 2 mg): -0.2 g/L | Haemoglobin, relative change from baseline ([7]; 2 mg): −0.1% | Haemoglobin, mean change from baseline at last on-treatment value ([7]; 5 mg): -0.7 g/L | Haemoglobin, relative change from baseline ([7]; 5 mg): −0.5% | Haemoglobin, mean change from baseline at last on-treatment value ([7]; 10 mg): 3.3 g/L | Haemoglobin, relative change from baseline ([7]; 10 mg): −2.3% | Haemoglobin, mean change from baseline at last on-treatment value ([7]; 25 mg): 4.5 g/L | Haemoglobin, relative change from baseline ([7]; 25 mg): −3.2% | Headache (most frequently observed AE) ([7]; all dose groups vs placebo): reported more frequently in all dose groups of compound I than placebo | Deaths ([7]; all treatment groups, 12 weeks): no deaths | Patients reporting on-treatment AEs ([7]; any treatment arm): Approximately 50% | Suicidal ideation and behaviour assessed using C-SSRS ([7]; compound I vs placebo): No significant differences | Worsening of schizophrenia assessed by PANSS total score ([7]; in vivo): no worsening of schizophrenia
